Data on 9 compounds can be found in US20260028336A1 (Arcus Biosciences, Inc., priority 2022, published 2026).

Molecules are shown by their SMILES.

What is called IC50 is the concentration at which inhibition is half-maximal. A high value points to lower potency.

The target of this experiment is T1, Cbl-b (Homo sapiens, UniProt Q13191).
T1 construct: biotin (biotinylated)
T1 sequence (Q13191 whole entry, species assumed): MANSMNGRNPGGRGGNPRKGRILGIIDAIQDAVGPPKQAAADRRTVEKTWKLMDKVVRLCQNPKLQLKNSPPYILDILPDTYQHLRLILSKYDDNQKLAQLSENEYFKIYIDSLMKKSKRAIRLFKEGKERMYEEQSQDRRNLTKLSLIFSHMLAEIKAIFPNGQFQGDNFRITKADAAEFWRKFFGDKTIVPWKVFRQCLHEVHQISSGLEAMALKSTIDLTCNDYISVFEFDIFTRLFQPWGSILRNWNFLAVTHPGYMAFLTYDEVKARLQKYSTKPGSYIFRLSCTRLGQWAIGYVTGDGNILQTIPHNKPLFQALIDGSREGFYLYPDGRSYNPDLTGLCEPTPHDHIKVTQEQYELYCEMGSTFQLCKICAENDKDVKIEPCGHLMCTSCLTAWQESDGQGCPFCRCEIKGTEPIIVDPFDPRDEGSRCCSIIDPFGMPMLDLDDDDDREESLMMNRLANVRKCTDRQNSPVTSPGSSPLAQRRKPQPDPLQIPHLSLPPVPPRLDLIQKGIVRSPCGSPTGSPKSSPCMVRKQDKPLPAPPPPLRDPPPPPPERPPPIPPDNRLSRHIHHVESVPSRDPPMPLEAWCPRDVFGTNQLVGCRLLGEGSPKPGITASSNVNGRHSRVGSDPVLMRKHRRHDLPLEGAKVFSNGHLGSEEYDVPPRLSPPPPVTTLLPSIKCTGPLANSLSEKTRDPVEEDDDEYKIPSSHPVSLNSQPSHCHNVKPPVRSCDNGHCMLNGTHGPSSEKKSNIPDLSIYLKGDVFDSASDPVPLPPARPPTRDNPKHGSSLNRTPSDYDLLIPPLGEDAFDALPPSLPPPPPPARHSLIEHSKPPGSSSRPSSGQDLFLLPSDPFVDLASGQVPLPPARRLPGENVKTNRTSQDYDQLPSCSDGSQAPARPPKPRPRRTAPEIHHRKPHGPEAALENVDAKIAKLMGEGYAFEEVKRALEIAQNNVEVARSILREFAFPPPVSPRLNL
Put plainly: Cbl-b probe displacement HTRF binding assay. As to conditions: 0.4 nM biotinylated Cbl-b, 150 nM BODIPY probe. As for the experimental part:
The affinity with which compounds of the present dislcosure bind to Cbl-b was assessed using probe displacement homologous time resolved fluorescence (HTRF) assays. […] The assays were performed in assay buffer consisting of 20 mM Hepes, 150 mM NaCl, 0.01% Triton X-100, 0.5 mM TCEP, 0.01% BSA. On the day of the assay, a 20 point, 1:2 master serial dilution of each compound was prepared in DMSO to span a final concentration range of […] to 0 nM. Two hundred nanoliters of diluted compound was added to each well of a 384-well plate. Fifteen microliters of biotinylated-Cbl-b resuspended in assay buffer were added to each well and the plate incubated for 60 minutes at room temperature prior to addition of 5 μL of BODIPY™ probe in assay buffer. […] After a further 15 minutes of incubation at room temperature, 5 μl of Streptavidin-Terbium cryptate reagent at 5-fold final concentration was added to each well of the 384-well plate. Binding of a probe to Cbl-b results in an increase of HTRF signal. […] Percentage maximum activity in each test well was calculated based on DMSO (maximum activity, 0% displacement) and no protein control wells (baseline activity, 100% displacement). Binding affinity was determined from a dose response curve fitted using a standard four parameter fit equation.
Take `CC1CC(c2cccc(-n3cc(C4CC4)c4c(CN5CCC[C@H](C)C5)c[nH]c4c3=O)c2)(c2nncn2C)C1` (mixture of isomers) [Example 15, 4-Cyclopropyl-6-{3-[3-methyl-1-(4-methyl-4H-1,2,4-triazol-3-yl)cyclobutyl]phenyl}-3-{[(3S′)-3-methylpiperidin-1-yl]methyl}-1H,6H,7H-pyrrolo[2,3-c]pyridin-7-one]: the half-inhibitory concentration (IC50) was in the range of 100 to 1000 nM. The same measure for `CC1CC(c2cccc(-n3cc(C4CC4)c4c(CO)c[nH]c4c3=O)c2)(c2nncn2C)C1` (mixture of isomers) [Example 16, 4-Cyclopropyl-3-(hydroxymethyl)-6-{3-[3-methyl-1-(4-methyl-4H-1,2,4-triazol-3-yl)cyclobutyl]phenyl}-1H,6H,7H-pyrrolo[2,3-c]pyridin-7-one]: 100 to 1000 nM. Take `CC1CC(c2cccc(-n3cc(C4CC4)c4cc(-c5cnn(C)c5)[nH]c4c3=O)c2)(c2nncn2C)C1` (mixture of isomers) [Example 32, 4-cyclopropyl-6-{3-[3-methyl-1-(4-methyl-4H-1,2,4-triazol-3-yl)cyclobutyl]phenyl}-2-(1-methyl-1H-pyrazol-4-yl)-1H,6H,7H-pyrrolo[2,3-c]pyridin-7-one]: the half-maximal inhibitory concentration (IC50) was 1000 to 5000 nM.

Regarding `CC1CC(c2cccc(-n3cc(C(F)(F)F)c4c(C#N)c[nH]c4c3=O)c2)(c2nncn2C)C1` (mixture of isomers) [Example 136, 7-Oxo-6-{3-[(1R,3S)-3-methyl-1-(4-methyl-4H-1,2,4-triazol-3-yl)cyclobutyl]phenyl}-4-(trifluoromethyl)-1H,6H,7H-pyrrolo[2,3-c]pyridine-3-carbonitrile], the IC50 was below 100 nM.

`CC1CC(c2cccc(-n3cc(C(F)(F)F)c4c(S(C)(=O)=O)c[nH]c4c3=O)c2)(c2nncn2C)C1` (mixture of isomers) [Example 139, 3-Methanesulfonyl-6-{3-[(1S,3R)-3-methyl-1-(4-methyl-4H-1,2,4-triazol-3-yl)cyclobutyl]phenyl}-4-(trifluoromethyl)-1H,6H,7H-pyrrolo[2,3-c]pyridin-7-one] came in with an IC50 below 100 nM.

`Cn1cnnc1[C@]1(c2cccc(-n3ccc4c(C5CC5)c[nH]c4c3=O)c2)C[C@H](C)C1` (single isomer, unassigned) [Example 13, 3-cyclopropyl-6-{3-[(1r,3s)-3-methyl-1-(4-methyl-4H-1,2,4-triazol-3-yl)cyclobutyl]phenyl}-1H,6H,7H-pyrrolo[2,3-c]pyridin-7-one] yielded a half-maximal inhibitory concentration (IC50) of 100 to 1000 nM. As for `Cn1cnnc1[C@]1(c2cccc(-n3cc(C4CC4)c4c(C(=O)O)c[nH]c4c3=O)c2)C[C@H](C)C1` (single isomer, unassigned) [Example 19, 4-Cyclopropyl-7-oxo-6-{3-[(1r,3s)-3-methyl-1-(4-methyl-4H-1,2,4-triazol-3-yl)cyclobutyl]phenyl}-1H,6H,7H-pyrrolo[2,3-c]pyridine-3-carboxylic acid], the IC50 lay within 1000 to 5000 nM. The compound `Cn1cnnc1[C@]1(c2cccc(-n3cc(C4CC4)c4c(C(=O)O)c[nH]c4c3=O)c2)C[C@@H](C)C1` (single isomer, unassigned) [Example 20, 4-Cyclopropyl-7-oxo-6-{3-[(1s,3r)-3-methyl-1-(4-methyl-4H-1,2,4-triazol-3-yl)cyclobutyl]phenyl}-1H,6H,7H-pyrrolo[2,3-c]pyridine-3-carboxylic acid] displayed a half-maximal inhibitory concentration (IC50) of 1000 to 5000 nM.

`CC(=O)c1c[nH]c2c(=O)n(-c3cccc([C@]4(c5nncn5C)C[C@@H](C)C4)c3)cc(C3CC3)c12` (single isomer, unassigned) [Example 21, 3-Acetyl-4-cyclopropyl-6-{3-[(1r,3s)-3-methyl-1-(4-methyl-4H-1,2,4-triazol-3-yl)cyclobutyl]phenyl}-1H,6H,7H-pyrrolo[2,3-c]pyridin-7-one]: the IC50 was below 100 nM.
